Assay results as given in ChEMBL document CHEMBL4049384, “Synthesis and evaluation of an injectable everolimus prodrug” (Bioorg Med Chem Lett, 2017).

What was measured:
Mus musculus [1] = assay: Toxicity in nude mouse xenografted with human OS-RC-2 cells assessed as body weight loss at 24 mg/kg, iv administered once weekly measured on day 5 (reference value: 1.9%); type: organism-based; details: in vivo
Mus musculus [2] = assay: Toxicity in nude mouse xenografted with human OS-RC-2 cells assessed as death at 1.5 mg/kg, iv administered three times a week measured after 32 days; type: organism-based; details: in vivo, 768 h
OS-RC-2 [3] = assay: Antitumor activity against human OS-RC2 cells xenografted in nude mouse assessed as tumor volume at 24 mg/kg, iv administered once weekly and measured on day 1 (reference value: 167.51 +/- 17.09 mm3); type: functional
MDA-MB-435 = assay: Antiproliferative activity against human MDA-MB-435 cells after 48 hrs by MTT assay; type: functional, cell-based; details: MDA-MB-435, 48 h
Blood [4] = assay: Prodrug conversion in Sprague-Dawley rat blood assessed as everolimus level at 2.724 mg/kg, iv at 8 hrs post dose by HPLC method; type: ADME, organism-based; details: in vivo
OS-RC-2 [5] = assay: Antitumor activity against human OS-RC2 cells xenografted in nude mouse assessed as reduction in tumor volume at 24 mg/kg, iv administered once weekly measured on day 8 relative to control; type: functional
Mus musculus [6] = assay: Toxicity in nude mouse xenografted with human OS-RC2 cells assessed as body weight loss at 1.5 mg/kg administered three times a week intravenously and measured on Day 12 (reference value: 15 %); type: organism-based; details: in vivo, iv
PC-3 = assay: Antiproliferative activity against human PC3 cells after 48 hrs by MTT assay; type: functional, cell-based; details: PC-3, 48 h
[7] = Half life in Sprague-Dawley rat at 2.724 mg/kg, iv; type: ADME, organism-based; details: in vivo
OS-RC-2 [8] = assay: Antitumor activity against human OS-RC2 cells xenografted in nude mouse assessed as reduction in tumor volume at 1.5 mg/kg, iv administered three times a week measured on day 12 relative to control; type: functional
OS-RC-2 [9] = assay: Antitumor activity against human OS-RC2 cells xenografted in nude mouse assessed as reduction in tumor volume at 1.5 mg/kg, iv administered three times a week measured on day 15 relative to control; type: functional
Mus musculus [10] = assay: Toxicity in nude mouse xenografted with human OS-RC-2 cells assessed as body weight loss at 1.5 mg/kg, iv administered three times a week measured after 32 days (reference value: 33%); type: organism-based; details: in vivo, 768 h
Mus musculus [11] = assay: Toxicity in nude mouse xenografted with human OS-RC-2 cells assessed as body weight loss at 24 mg/kg, iv administered once weekly measured after 32 days (reference value: 33%); type: organism-based; details: in vivo, 768 h
OS-RC-2 [12] = assay: Antitumor activity against human OS-RC2 cells xenografted in nude mouse assessed as reduction in tumor volume at 1.5 mg/kg, iv administered three times a week measured on day 26 relative to control; type: functional
OS-RC-2 [13] = assay: Antitumor activity against human OS-RC2 cells xenografted in nude mouse assessed as tumor growth inhibition at 24 mg/kg, iv administered once weekly measured after 32 days relative to control; type: functional; details: OS-RC-2, iv, 768 h, read-out: TGI
Blood [14] = assay: Prodrug conversion in Sprague-Dawley rat blood assessed as everolimus formation at 2 mg/kg, iv after 2 hrs by HPLC analysis; type: ADME, organism-based; details: in vivo
[15] = Prodrug conversion in phosphate buffered saline at pH 7.4 assessed as everolimus formation
Mus musculus [16] = assay: Toxicity in nude mouse xenografted with human OS-RC2 cells assessed as body weight loss at 24 mg/kg, iv administered once weekly measured on day 26 (reference value: 28.2 %); type: organism-based; details: in vivo
Blood [17] = assay: Prodrug conversion in Sprague-Dawley rat blood assessed as everolimus level at 2.724 mg/kg, iv at 4 hrs post dose by HPLC method; type: ADME, organism-based; details: in vivo
[18] = AUC (0 to t) in Sprague-Dawley rat at 2.724 mg/kg, iv; type: ADME, organism-based; details: in vivo
OS-RC-2 [19] = assay: Antitumor activity against human OS-RC2 cells xenografted in nude mouse assessed as reduction in tumor volume at 24 mg/kg, iv administered once weekly measured on day 29 relative to control; type: functional
OS-RC-2 [20] = assay: Antitumor activity against human OS-RC2 cells xenografted in nude mouse assessed as reduction in tumor volume at 1.5 mg/kg, iv administered three times a week measured on day 32 relative to control; type: functional
Mus musculus [21] = assay: Toxicity in nude mouse xenografted with human OS-RC2 cells assessed as body weight loss at 1.5 mg/kg administered three times a week intravenously and measured on Day 26 (reference value: 28.2 %); type: organism-based; details: in vivo, iv
Serum = assay: Prodrug conversion in rat serum assessed as everolimus formation after 4 hrs by HPLC analysis; type: ADME, cell-free
Mus musculus [22] = assay: Toxicity in nude mouse xenografted with human OS-RC-2 cells assessed as death at 24 mg/kg, iv administered once weekly measured after 32 days; type: organism-based; details: in vivo, 768 h
Mus musculus [23] = assay: Toxicity in nude mouse xenografted with human OS-RC2 cells assessed as body weight loss at 1.5 mg/kg administered three times a week intravenously and measured on Day 8 (reference value: 8.5 %); type: organism-based; details: in vivo, iv
Blood [24] = assay: Prodrug conversion in Sprague-Dawley rat blood assessed as everolimus level at 2.724 mg/kg, iv at 1 hr post dose by HPLC method; type: ADME, organism-based; details: in vivo
OS-RC-2 [25] = assay: Antitumor activity against human OS-RC2 cells xenografted in nude mouse assessed as tumor volume at 1.5 mg/kg, iv administered three times a week measured on day 1 (reference value: 167.51 +/- 17.09 mm3); type: functional
Mus musculus [26] = assay: Toxicity in nude mouse xenografted with human OS-RC2 cells assessed as body weight loss at 1.5 mg/kg, iv administered three times a week measured on Day 15 (reference value: 20.2 %); type: organism-based; details: in vivo
Blood [27] = assay: Prodrug conversion in Sprague-Dawley rat blood assessed as everolimus level at 2.724 mg/kg, iv at 3 hrs post dose by HPLC method; type: ADME, organism-based; details: in vivo
OS-RC-2 [28] = assay: Antitumor activity against human OS-RC2 cells xenografted in nude mouse assessed as reduction in tumor volume at 24 mg/kg, iv administered once weekly measured on day 22 relative to control; type: functional
Blood [29] = assay: Prodrug conversion in Sprague-Dawley rat blood assessed as everolimus level at 2.724 mg/kg, iv at 24 hrs post dose by HPLC method; type: ADME, organism-based; details: in vivo
OS-RC-2 [30] = assay: Antitumor activity against human OS-RC2 cells xenografted in nude mouse assessed as reduction in tumor volume at 24 mg/kg, iv administered once weekly measured on day 15 relative to control; type: functional
DU-145 = assay: Antiproliferative activity against human DU145 cells after 48 hrs by MTT assay; type: functional, cell-based; details: DU-145, 48 h
OS-RC-2 [31] = assay: Antitumor activity against human OS-RC2 cells xenografted in nude mouse assessed as reduction in tumor volume at 1.5 mg/kg, iv administered three times a week measured on day 19 relative to control; type: functional
Mus musculus [32] = assay: Toxicity in nude mouse xenografted with human OS-RC2 cells assessed as body weight loss at 1.5 mg/kg administered three times a week intravenously and measured on Day 5 (reference value: 1.9 %); type: organism-based; details: in vivo, iv
Mus musculus [33] = assay: Toxicity in nude mouse xenografted with human OS-RC2 cells assessed as body weight loss at 24 mg/kg, iv administered once weekly measured on day 22 (reference value: 23.1 %); type: organism-based; details: in vivo
HepG2 = assay: Antiproliferative activity against human HepG2 cells after 48 hrs by MTT assay; type: functional, cell-based; details: HepG2, 48 h

**Q.** Which results are given for `CO[C@H]1C[C@@H]2CC[C@@H](C)[C@@](O)(O2)C(=O)C(=O)N2CCCC[C@H]2C(=O)O[C@H]([C@H](C)C[C@@H]2CC[C@@H](OCCOC(=O)CSC[C@H](NC(=O)CC[C@H](N)C(=O)O)C(=O)NCC(=O)O)[C@H](OC)C2)CC(=O)[C@H](C)/C=C(\C)[C@@H](O)[C@@H](OC)C(=O)[C@H](C)C[C@H](C)\C=C/C=C/C=C/1C`?
**A.** Activity (Mus musculus [1]): 6.2%; Activity (Mus musculus [2]): Non-Toxic; Activity (OS-RC-2 [3]): 167.06 mm3; IC50 (MDA-MB-435): 55.3 µM; Drug metabolism (Blood [4]): 6.8915 ng/mL; T/C (OS-RC-2 [5]): 0.41%; Activity (Mus musculus [6]): 9.5%; IC50 (PC-3): 25.9 µM; half-life [7]: 2.3 h; T/C (OS-RC-2 [8]): 0.6%; T/C (OS-RC-2 [9]): 0.55%; Activity (Mus musculus [10]): 12.3%; Activity (Mus musculus [11]): 10.7%; T/C (OS-RC-2 [12]): 0.52%; inhibition in vivo at 24 mg/kg (OS-RC-2 [13]): 60.6%; Drug metabolism (Blood [14]): Metabolite_Detected; Drug metabolism [15]: Metabolite not detected; Activity (Mus musculus [16]): 10.2%; Drug metabolism (Blood [17]): 13.8243 ng/mL; AUC(0-t) [18]: 2490 ng·h/mL; T/C (OS-RC-2 [19]): 0.54%; T/C (OS-RC-2 [20]): 0.52%; Activity (Mus musculus [21]): 13.1%; Drug metabolism (Serum): Metabolite_Detected; Activity (Mus musculus [22]): Non-Toxic; Activity (Mus musculus [23]): 9.2%; Drug metabolism (Blood [24]): 73.5532 ng/mL; Activity (OS-RC-2 [25]): 167.6 mm3; Activity (Mus musculus [26]): 12%; Drug metabolism (Blood [27]): 16.9443 ng/mL; T/C (OS-RC-2 [28]): 0.55%; Drug metabolism (Blood [29]): 2.3295 ng/mL; T/C (OS-RC-2 [30]): 0.41%; IC50 (DU-145): 56.2 µM; T/C (OS-RC-2 [31]): 0.57%; Activity (Mus musculus [32]): 6.8%; Activity (Mus musculus [33]): 10.2%; IC50 (HepG2): 11.1 µM
